PubChem BioAssay AID1259407 (Chemical Carcinogenesis Research Information System (CCRIS), 2018)
Calls of active or inactive are those of the source. The rule behind the calls is not given here.

Tested on: CCRIS mutagenicity, Ames/micronucleus/aberration tests
Test: CCRIS mutagenicity studies
[1] = Test System: AMES SALMONELLA TYPHIMURIUM, Strain/Indicator: TA98, Metabolic Activation: NONE, Method: STANDARD PLATE
[2] = Test System: AMES SALMONELLA TYPHIMURIUM, Strain/Indicator: TA98, Metabolic Activation: RAT, LIVER, S-9, AROCLOR 1254, Method: STANDARD PLATE
[3] = Test System: AMES SALMONELLA TYPHIMURIUM, Strain/Indicator: TA100, Metabolic Activation: NONE, Method: STANDARD PLATE
[4] = Test System: AMES SALMONELLA TYPHIMURIUM, Strain/Indicator: TA100, Metabolic Activation: RAT, LIVER, S-9, AROCLOR 1254, Method: STANDARD PLATE
[5] = Test System: AMES SALMONELLA TYPHIMURIUM, Strain/Indicator: TA1535, Metabolic Activation: NONE, Method: STANDARD PLATE
[6] = Test System: MOUSE LYMPHOMA, Strain/Indicator: L5178Y (TK+/TK-), Metabolic Activation: NONE, Method: SUSPENSION/PLATE

## Nc1ncn([C@@H]2O[C@H](CO)[C@@H](O)[C@@H]2O)c(=O)n1
Test System: AMES SALMONELLA TYPHIMURIUM, Strain/Indicator: TA98, Metabolic Activation: HAMSTER, LIVER, S-9, AROCLOR 1254, Method: STANDARD PLATE
  mutagenic call: inactive; negative
[1]
  mutagenic call: inactive; negative
[2]
  mutagenic call: inactive; negative
Test System: AMES SALMONELLA TYPHIMURIUM, Strain/Indicator: TA100, Metabolic Activation: HAMSTER, LIVER, S-9, AROCLOR 1254, Method: STANDARD PLATE
  mutagenic call: inactive; negative
[3]
  mutagenic call: inactive; negative
[4]
  mutagenic call: inactive; negative
Test System: AMES SALMONELLA TYPHIMURIUM, Strain/Indicator: TA1535, Metabolic Activation: HAMSTER, LIVER, S-9, AROCLOR 1254, Method: STANDARD PLATE
  mutagenic call: inactive; negative
[5]
  mutagenic call: inactive; negative
Test System: AMES SALMONELLA TYPHIMURIUM, Strain/Indicator: TA1535, Metabolic Activation: RAT, LIVER, S-9, AROCLOR 1254, Method: STANDARD PLATE
  mutagenic call: inactive; negative
Test System: AMES SALMONELLA TYPHIMURIUM, Strain/Indicator: TA1537, Metabolic Activation: HAMSTER, LIVER, S-9, AROCLOR 1254, Method: STANDARD PLATE
  mutagenic call: inactive; negative
Test System: AMES SALMONELLA TYPHIMURIUM, Strain/Indicator: TA1537, Metabolic Activation: NONE, Method: STANDARD PLATE
  mutagenic call: inactive; negative
Test System: AMES SALMONELLA TYPHIMURIUM, Strain/Indicator: TA1537, Metabolic Activation: RAT, LIVER, S-9, AROCLOR 1254, Method: STANDARD PLATE
  mutagenic call: inactive; negative
Test System: AMES SALMONELLA TYPHIMURIUM, Strain/Indicator: TA1538, Metabolic Activation: HAMSTER, LIVER, S-9, AROCLOR 1254, Method: STANDARD PLATE
  mutagenic call: inactive; negative
Test System: AMES SALMONELLA TYPHIMURIUM, Strain/Indicator: TA1538, Metabolic Activation: NONE, Method: STANDARD PLATE
  mutagenic call: inactive; negative
Test System: AMES SALMONELLA TYPHIMURIUM, Strain/Indicator: TA1538, Metabolic Activation: RAT, LIVER, S-9, AROCLOR 1254, Method: STANDARD PLATE
  mutagenic call: inactive; negative
[6]
  mutagenic call: active; positive. reevaluation of results: inconclusive
Test System: MOUSE LYMPHOMA, Strain/Indicator: L5178Y (TK+/TK-), Metabolic Activation: RAT, LIVER, S-9, AROCLOR 1254, Method: SUSPENSION/PLATE
  mutagenic call: inactive; negative. reevaluation of results: inconclusive

## CC(N)C(=O)O (centres undefined)
Test System: AMES SALMONELLA TYPHIMURIUM, Strain/Indicator: TA98, Metabolic Activation: RAT LIVER, S-9, CHLOROPHENE, Method: STANDARD PLATE (COMPOUND HEATED AT 250 DEGREES CELSIUS FOR 20 MIN)
  mutagenic call: inactive; negative

## CCCNNCCC
Test System: AMES SALMONELLA TYPHIMURIUM, Strain/Indicator: TA100, Metabolic Activation: NONE, Method: PREINCUBATION (11 HR GROWTH PERIOD FOR BACTERIA)
  mutagenic call: active; positive
Test System: AMES SALMONELLA TYPHIMURIUM, Strain/Indicator: TA100, Metabolic Activation: RAT, LIVER, S-9, PCB, Method: PREINCUBATION (11 HR GROWTH PERIOD FOR BACTERIA)
  mutagenic call: inactive; negative
Test System: AMES SALMONELLA TYPHIMURIUM, Strain/Indicator: TA102, Metabolic Activation: NONE, Method: PREINCUBATION (5 OR 7 HR GROWTH PERIOD FOR BACTERIA)
  mutagenic call: active; positive
Test System: AMES SALMONELLA TYPHIMURIUM, Strain/Indicator: TA102, Metabolic Activation: RAT, LIVER, S-9, PCB, Method: PREINCUBATION (5 OR 7 HR GROWTH PERIOD FOR BACTERIA)
  mutagenic call: active; positive

## CCOC(=O)CNC(=O)C=[N+]=[N-]
[5]
  mutagenic call: active; positive
Test System: UDS RODENT PRIMARY CELLS, Strain/Indicator: THY INCORP (NON-S-PHASE), Metabolic Activation: NONE, Method: AUTORADIOGRAPHY
  mutagenic call: active; positive

## CC(=O)Nc1cccc2c1-c1ccccc1C2
Test System: AMES SALMONELLA TYPHIMURIUM, Strain/Indicator: TA98, Metabolic Activation: HUMAN, RED BLOOD CELL, CYTOSOL, Method: PREINCUBATION
  mutagenic call: inactive; negative
Test System: AMES SALMONELLA TYPHIMURIUM, Strain/Indicator: TA1538, Metabolic Activation: RAT, LIVER, CYTOSOL, 4-ACETYLAMINOFLUORENE, Method: STANDARD PLATE
  mutagenic call: inactive; negative
Test System: AMES SALMONELLA TYPHIMURIUM, Strain/Indicator: TA1538, Metabolic Activation: RAT, LIVER, CYTOSOL, AROCLOR 1254, Method: STANDARD PLATE
  mutagenic call: active; positive
Test System: AMES SALMONELLA TYPHIMURIUM, Strain/Indicator: TA1538, Metabolic Activation: RAT, LIVER, CYTOSOL, Method: STANDARD PLATE
  mutagenic call: inactive; negative
Test System: AMES SALMONELLA TYPHIMURIUM, Strain/Indicator: TA1538, Metabolic Activation: RAT, LIVER, MICROSOMES, 4-ACETYLAMINOFLUORENE, Method: STANDARD PLATE
  mutagenic call: active; positive
Test System: AMES SALMONELLA TYPHIMURIUM, Strain/Indicator: TA1538, Metabolic Activation: RAT, LIVER, MICROSOMES, AROCLOR 1254, Method: STANDARD PLATE
  mutagenic call: active; positive
Test System: AMES SALMONELLA TYPHIMURIUM, Strain/Indicator: TA1538, Metabolic Activation: RAT, LIVER, MICROSOMES, Method: STANDARD PLATE
  mutagenic call: inactive; negative
Test System: AMES SALMONELLA TYPHIMURIUM, Strain/Indicator: TA1538, Metabolic Activation: RAT, LIVER, S-9, PHENOBARBITAL, Method: STANDARD PLATE
  mutagenic call: active; positive
Test System: E. COLI, Strain/Indicator: WP2 UVRA, Metabolic Activation: HAMSTER, LIVER, S-9, AROCLOR 1254, Method: STANDARD PLATE
  mutagenic call: inactive; negative
Test System: E. COLI, Strain/Indicator: WP2 UVRA, Metabolic Activation: HAMSTER, LIVER, S-9, Method: STANDARD PLATE
  mutagenic call: inactive; negative
Test System: E. COLI, Strain/Indicator: WP2 UVRA, Metabolic Activation: MOUSE, LIVER, S-9, AROCLOR 1254, Method: STANDARD PLATE
  mutagenic call: inactive; negative
Test System: E. COLI, Strain/Indicator: WP2 UVRA, Metabolic Activation: MOUSE, LIVER, S-9, Method: STANDARD PLATE
  mutagenic call: inactive; negative
Test System: E. COLI, Strain/Indicator: WP2 UVRA, Metabolic Activation: NONE, Method: STANDARD PLATE
  mutagenic call: inactive; negative
Test System: E. COLI, Strain/Indicator: WP2 UVRA, Metabolic Activation: RAT, LIVER, S-9, AROCLOR 1254, Method: STANDARD PLATE
  mutagenic call: inactive; negative
Test System: E. COLI, Strain/Indicator: WP2 UVRA, Metabolic Activation: RAT, LIVER, S-9, Method: STANDARD PLATE
  mutagenic call: inactive; negative
[6]
  mutagenic call: inactive; negative
Test System: UDS, Strain/Indicator: HEPG2/THYMIDINE INCORPORATION, Metabolic Activation: NONE, Method: AUTORADIOGRAPHY
  mutagenic call: inactive; negative

## O=[N+]([O-])C1=Cc2cccc3cccc1c23
[1]
  mutagenic call: active; positive

## Cc1ccccc1NO
[1]
  mutagenic call: inactive; negative
Test System: AMES SALMONELLA TYPHIMURIUM, Strain/Indicator: TA98, Metabolic Activation: RAT, LIVER, S-9, AROCLOR 1254, Method: PREINCUBATION
  mutagenic call: inactive; negative
[2]
  mutagenic call: inactive; negative
[3]
  mutagenic call: inactive; negative
[4]
  mutagenic call: active; positive
Test System: AMES SALMONELLA TYPHIMURIUM, Strain/Indicator: TA100, Metabolic Activation: RAT, LIVER, S-9, PCB, Method: PREINCUBATION
  mutagenic call: active; positive

## Cc1ccc2c([N+](=O)[O-])cccc2c1
Test System: AMES SALMONELLA TYPHIMURIUM, Strain/Indicator: TA98, Metabolic Activation: NONE, Method: PREINCUBATION
  mutagenic call: active; positive
